Results as given in publication PMC9487510, “A Novel Oral GyrB/ParE Dual Binding Inhibitor Effective against Multidrug-Resistant Neisseria gonorrhoeae and Other High-Threat Pathogens” (Antimicrobial Agents and Chemotherapy, 2022).
Like-named read-outs stand apart in the source and are kept apart here.

Test system: N. gonorrhoeae clinical isolates
Test: MIC, agar dilution (CLSI)
Format: cell-based, Neisseria gonorrhoeae
Settings: for MIC: Neisseria gonorrhoeae, read-out: MIC

CNc1cc(F)cc2c1[nH]c1nc(Oc3cnc(C)nc3)nc(N3CCC4(CC3)CO[C@@H](CO)C4)c12 [JSF-2414]
30 ng/mL: MIC (strain CDC22 (GCREF2012 019))
0.5 to 30 ng/mL: MIC range (96 clinical isolates)
3.9 ng/mL: MIC (ATCC700825, antibiotic-susceptible strain ATCC 700825) | MIC (strain CDC1 (GCREF2012 016)) | MIC (strain CDC2 (GCREF2012 045)) | MIC (strain CDC3 (GCREF2013 013)) | MIC (strain CDC4 (GCREF2013 030)) | MIC (strain CDC5 (GCREF2012 001)) | MIC (strain CDC9 (GCREF2012 005)) | MIC (strain CDC10 (GCREF2012 006)) | MIC (strain CDC11 (GCREF2012 007)) | MIC (strain CDC12 (GCREF2012 008)) | MIC (strain CDC13 (GCREF2012 009)) | MIC (strain CDC14 (GCREF2012 010)) | MIC (strain CDC19 (GCREF2012 015)) | MIC (strain CDC21 (GCREF2012 018)) | MIC (strain CDC24 (GCREF2012 021)) | MIC (strain CDC25 (GCREF2012 022)) | MIC (strain CDC27 (GCREF2012 024)) | MIC (strain CDC28 (GCREF2012 025)) | MIC (strain CDC34 (GCREF2012 031)) | MIC (strain CDC35 (GCREF2012 032)) | MIC (strain CDC37 (GCREF2012 034)) | MIC (strain CDC38 (GCREF2012 035)) | MIC (strain CDC39 (GCREF2012 036)) | MIC (strain CDC40 (GCREF2012 037)) | MIC (strain CDC41 (GCREF2012 038)) | MIC (strain CDC42 (GCREF2012 039)) | MIC (strain CDC43 (GCREF2012 040)) | MIC (strain CDC46 (GCREF2012 043)) | MIC (strain CDC47 (GCREF2012 044)) | MIC (strain CDC48 (GCREF2012 046)) | MIC (strain CDC49 (GCREF2012 047)) | MIC (strain CDC51 (GCREF2012 049)) | MIC (strain CDC52 (GCREF2012 050))
16 ng/mL: MIC (strain CDC20 (GCREF2012 017))
7.8 ng/mL: MIC (multidrug-resistant strain H041) | MIC (strain CDC6 (GCREF2012 002)) | MIC (strain CDC15 (GCREF2012 011)) | MIC (strain CDC16 (GCREF2012 012)) | MIC (strain CDC18 (GCREF2012 014)) | MIC (strain CDC23 (GCREF2012 020)) | MIC (strain CDC26 (GCREF2012 023)) | MIC (strain CDC29 (GCREF2012 026)) | MIC (strain CDC30 (GCREF2012 027)) | MIC (strain CDC31 (GCREF2012 028)) | MIC (strain CDC32 (GCREF2012 029)) | MIC (strain CDC33 (GCREF2012 030)) | MIC (strain CDC45 (GCREF2012 042)) | MIC (strain CDC50 (GCREF2012 048)) | MIC (strain CDC53 (GCREF2012 051))
2 ng/mL: MIC (strain CDC8 (GCREF2012 004)) | MIC (strain CDC36 (GCREF2012 033))
